Values after ≈ are worked out from the molar mass of the structure shown.
Key:
Format in all cases: cell-based
Staphylococcus aureus [1] = assay: Bactericidal activity in solution (Activity % Reduction); settings: 2000 ppm in water at ambient temperature
Protocol: (§1) In a second assay, compounds of this invention were screened for activity to kill bacteria in solution over a short period of time. Bactericidal activity is expressed as Activity % Reduction. All samples were tested in water at ambient temperature and at a concentration of 2000 ppm.

Escherichia coli [2] = assay: as above; settings: 2000 ppm in water at ambient temperature
Protocol: as §1

Aspergillus brasiliensis = assay: Minimum Inhibition Concentration (MIC) screen; settings: strain ATTC 16404
Protocol: (§2) To test the compounds as antimicrobial agents, the compounds were screened for activity to inhibit bacteria, yeast and mold. The Minimum Inhibition Concentration (MIC) is determined as the lowest concentration activity to inhibit the microorganism.

Staphylococcus aureus [3] = assay: Minimum Inhibition Concentration (MIC) screen; settings: strain ATTC 6538
Protocol: as §2

Candida albicans = assay: Minimum Inhibition Concentration (MIC) screen; settings: strain ATTC 10231
Protocol: as §2

Escherichia coli [4] = assay: Minimum Inhibition Concentration (MIC) screen; settings: strain ATTC 10536
Protocol: as §2

Pseudomonas aeruginosa = assay: Minimum Inhibition Concentration (MIC) screen; settings: strain ATTC 15442
Protocol: as §2

[5] = test system: Staphylococcus epidermidis; assay: Minimum Inhibition Concentration (MIC) screen; settings: strain ATTC 12228
Protocol: as §2

MIC (Aspergillus brasiliensis) [µg/mL]	MIC (Staphylococcus aureus [3]) [µg/mL]	MIC (Candida albicans) [µg/mL]	MIC (Escherichia coli [4]) [µg/mL]	MIC (Pseudomonas aeruginosa) [µg/mL]	MIC [5] [µg/mL]	SMILES	inhibition at 2000 ppm (Staphylococcus aureus [1]; 5 min) [%]	inhibition at 2000 ppm (Staphylococcus aureus [1]; 1 hour) [%]	inhibition at 2000 ppm (Escherichia coli [2]; 5 min) [%]	inhibition at 2000 ppm (Escherichia coli [2]; 1 hour) [%]
> 1000	15.6 (≈ 0.0749 mM)	> 1000	> 1000	> 1000	31.2 (≈ 0.15 mM)	CCCCCCCC1CC(=O)C=C(C)C1 (stereo not shown) [3-Methyl-5-Heptyl-2-Cyclohexenone, 3-methyl-5-heptyl-2-cyclohexenone]	37.6	24.1	13.9	25
500 (≈ 3.28 mM)	1000 (≈ 6.57 mM)	1000 (≈ 6.57 mM)	1000 (≈ 6.57 mM)	> 1000	> 1000	CCCC1CC(=O)C=C(C)C1 (stereo not shown) [3-Methyl-5-Propyl-2-Cyclohexenone, 3-methyl-5-propyl-2-cyclohexenone]	29.2	33.9	69.5	99
250 (≈ 1.49 mM)	125 (≈ 0.743 mM)	125 (≈ 0.743 mM)	> 1000	> 1000	125 (≈ 0.743 mM)	CCCCC1CC(C)=CC(O)C1 (stereo not shown) [3-Methyl-5-Butyl-2-Cyclohexenol, 3-methyl-5-butyl-2-cyclohexenol]	28.4	39	34.7	88.5
250 (≈ 1.5 mM)	500 (≈ 3.01 mM)	500 (≈ 3.01 mM)	500 (≈ 3.01 mM)	> 1000	1000 (≈ 6.01 mM)	CCCCC1CC(=O)C=C(C)C1 (stereo not shown) [3-Methyl-5-Butyl-2-Cyclohexenone, 3-methyl-5-butyl-2-cyclohexenone]	33.9	33.2	83.8	100

— patent US20150125402A1, “ANTIMICROBIAL AGENTS” (BEDOUKIAN RESEARCH, INC., priority 2012, published 2015)
